Measurements from patent publication US6191282A, “Substituted 5-membered ring heterocycles comprising a bicyclic or tricyclic group their preparation and their use” (Hoechst Marion Roussel, priority 1993, dated 2001).
Structures can show the parent of a compound that is named as a salt. Where two headings read alike, the source gives them in different places.

Columns and labels:
[1] = test system: gel-filtered human thrombocytes; assay: Inhibition of the aggregation of gel-filtered human thrombocytes following stimulation with ADP or thrombin (Test method 1); assay type: cell-based; settings: 1 mg/ml fibrinogen, 37° C., GFP from 2-4 donors
Description: As a functional test, measurement is made of the inhibition of the aggregation of gel-filtered human thrombocytes, following stimulation with ADP or thrombin, by the compounds according to the invention.
For this purpose, human thrombocytes were isolated from platelet-rich plasma (PRP) by gel filtration on Sepharose 2 B. The resulting suspension of gel-filtered platelets (GFP), which contained 3×10^8 platelets/ml, was activated in the presence of 1 mg/ml of fibrinogen either with 10 μM ADP or with 0.1 U/ml thrombin, and stirred in an aggregometer (PAP 4, Biodata, Hatboro, Penna., USA) at 37° C. and at 1000 revolutions per minute. The maximum increase in the translucency is taken as a measure of the aggregation. The test substances were added to the GFP at 37° C. and 2 min before activating with ADP or thrombin.

[2] = biological target: T1, isolated fibrinogen receptor (glycoprotein IIb/IIIa) (Homo sapiens, UniProt P05106+P08514); assay: Inhibition of 125I-fibrinogen binding to the isolated, immobilized receptor (glycoprotein IIb/IIIa) (Test method 3); settings: isolated receptor immobilized in microtitre plates
T1 construct: isolated from human thrombocytes and immobilized in microtitre plates; from tissue; host or cells: human thrombocytes (platelets), receptor isolated
T1 sequence (P08514 32-887 limits assumed): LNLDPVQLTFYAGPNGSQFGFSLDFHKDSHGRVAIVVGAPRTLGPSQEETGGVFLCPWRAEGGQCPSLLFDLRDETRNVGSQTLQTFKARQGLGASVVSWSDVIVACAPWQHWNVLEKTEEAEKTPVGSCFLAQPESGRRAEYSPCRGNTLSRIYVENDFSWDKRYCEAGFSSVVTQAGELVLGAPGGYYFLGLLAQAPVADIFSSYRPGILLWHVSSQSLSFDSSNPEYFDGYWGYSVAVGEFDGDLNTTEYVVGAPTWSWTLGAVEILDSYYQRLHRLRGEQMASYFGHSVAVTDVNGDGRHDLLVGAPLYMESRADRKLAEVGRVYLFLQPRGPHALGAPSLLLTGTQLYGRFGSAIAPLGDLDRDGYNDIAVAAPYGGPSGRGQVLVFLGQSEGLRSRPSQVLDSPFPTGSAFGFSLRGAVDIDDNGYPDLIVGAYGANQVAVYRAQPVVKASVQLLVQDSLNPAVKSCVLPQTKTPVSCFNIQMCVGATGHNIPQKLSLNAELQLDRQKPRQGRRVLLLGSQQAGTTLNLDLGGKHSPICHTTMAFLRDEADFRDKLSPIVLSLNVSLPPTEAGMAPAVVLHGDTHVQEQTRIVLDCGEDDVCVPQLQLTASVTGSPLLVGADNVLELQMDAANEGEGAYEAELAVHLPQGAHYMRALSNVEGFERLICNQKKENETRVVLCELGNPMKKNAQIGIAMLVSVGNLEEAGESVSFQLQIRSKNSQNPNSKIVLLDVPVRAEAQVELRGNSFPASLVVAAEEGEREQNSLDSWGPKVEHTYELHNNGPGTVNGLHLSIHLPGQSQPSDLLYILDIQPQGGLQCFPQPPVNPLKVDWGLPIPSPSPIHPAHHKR
T1 sequence (P08514 891-1039 partner limits assumed): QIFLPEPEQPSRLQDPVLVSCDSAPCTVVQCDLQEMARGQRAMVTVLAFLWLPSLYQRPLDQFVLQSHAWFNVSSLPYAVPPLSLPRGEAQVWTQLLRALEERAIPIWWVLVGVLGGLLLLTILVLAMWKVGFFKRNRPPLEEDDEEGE
T1 sequence (P05106 27-788): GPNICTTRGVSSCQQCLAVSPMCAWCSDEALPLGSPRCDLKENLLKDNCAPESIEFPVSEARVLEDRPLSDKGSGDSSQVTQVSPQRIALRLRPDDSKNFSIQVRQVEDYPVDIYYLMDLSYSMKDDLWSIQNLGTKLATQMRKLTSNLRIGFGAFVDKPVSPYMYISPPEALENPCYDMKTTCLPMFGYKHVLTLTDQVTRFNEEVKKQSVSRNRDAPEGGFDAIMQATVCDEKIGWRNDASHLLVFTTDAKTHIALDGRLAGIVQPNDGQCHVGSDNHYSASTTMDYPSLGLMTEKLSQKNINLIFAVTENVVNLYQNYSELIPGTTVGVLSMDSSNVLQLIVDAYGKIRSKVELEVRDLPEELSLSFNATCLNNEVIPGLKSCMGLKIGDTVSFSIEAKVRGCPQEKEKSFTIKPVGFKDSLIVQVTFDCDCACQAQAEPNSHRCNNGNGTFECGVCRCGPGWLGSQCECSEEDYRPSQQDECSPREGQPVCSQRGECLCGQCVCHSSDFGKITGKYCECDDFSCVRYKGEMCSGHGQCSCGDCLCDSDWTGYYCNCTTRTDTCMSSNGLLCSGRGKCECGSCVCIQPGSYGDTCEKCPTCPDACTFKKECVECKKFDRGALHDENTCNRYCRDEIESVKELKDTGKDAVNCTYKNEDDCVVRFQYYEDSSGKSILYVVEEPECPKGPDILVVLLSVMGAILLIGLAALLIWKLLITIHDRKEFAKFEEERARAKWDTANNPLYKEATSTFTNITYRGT
Description: The inhibition of the binding of fibrinogen to its receptor (glycoprotein IIb/IIIa) which is brought about by the compounds according to the invention is tested on the isolated receptor, which was isolated from human thrombocytes and immobilized in microtitre plates.

[3] = biological target: T2, fibrinogen receptor (glycoprotein IIb/IIIa) on intact, gel-filtered human thrombocytes (Homo sapiens, UniProt P05106+P08514); assay: Inhibition of 125I-fibrinogen binding to its receptor (glycoprotein IIb/IIIa) on intact, gel-filtered human thrombocytes (Test method 2); settings: intact GFP, 10 μM ADP, 40 nmol/l 125I-fibrinogen, room temperature, 30 min; read-out: Ki, inhibition of the binding of 125I-fibrinogen, ADP-stimulated
T2 construct: endogenous in cells; host or cells: human thrombocytes isolated from platelet-rich plasma by gel filtration on Sepharose 2 B
T2 sequence (P08514 32-887 limits assumed): as the sequence (P08514 32-887 limits assumed) above
T2 sequence (P08514 891-1039 partner limits assumed): as the sequence (P08514 891-1039 partner limits assumed) above
T2 sequence (P05106 27-788): as the sequence (P05106 27-788) above
Description: The inhibition of the binding of fibrinogen to its receptor (glycoprotein IIb/IIIa) by the compounds according to the invention is tested on intact, gel-filtered human thrombocytes.
For this purpose, human thrombocytes were isolated from platelet-rich plasma (PRP) by gel filtration on Sepharose 2 B. A suspension of gel-filtered platelets (GFP) was obtained which contained 4×10^8platelets/ml. […] Aliquots of 100 μl were then added onto 20% sucrose, and the platelets were sedimented by being centrifuged for 2 minutes at 12,000 revolutions per minute. The supernatant was decanted carefully and completely and the remaining sediment was measured in a gamma counter. The specific binding was ascertained by subtracting the binding in the presence of an excess (10 μM) of unlabelled fibrinogen from the total bound radioactivity.

[4] = Homo sapiens, ADP-stimulated (10 μM ADP), read-out: IC50, inhibition of thrombocyte aggregation, ADP-stimulated
[5] = Homo sapiens, Thrombin-stimulated (0.1 U/ml thrombin), read-out: IC50, inhibition of thrombocyte aggregation, Thrombin-stimulated
[6] = read-out: Ki, inhibition of the binding of 125I-fibrinogen, ADP-stimulated
[7] = ADP-stimulated (10 μM ADP), read-out: IC50, inhibition of thrombocyte aggregation, ADP-stimulated
[8] = Thrombin-stimulated (0.1 U/ml thrombin), read-out: IC50, inhibition of thrombocyte aggregation, Thrombin-stimulated
[9] = Ki, inhibition of the binding of 125I-fibrinogen, ADP-stimulated

| IC50 [1, 4] [nM] | IC50 [1, 5] [nM] | Ki [2, 6] [nM] | IC50 [1, 7] [nM] | IC50 [1, 8] [nM] | Ki [3] [nM] | SMILES | Ki [2, 9] [nM] |
| --- | --- | --- | --- | --- | --- | --- | --- |
| 200 | 200 | 0.748 | – | – | – | CC1(c2ccc(C(=N)N)cc2)NC(=O)N(CC(=O)NC(CC(=O)O)c2ccccc2)C1=O (racemic) [Example 13, (R,S)-3-(((R,S)-4-(4-(Aminoiminomethyl)phenyl)-4-methyl-2,5-dioxoimidazolidin-1-yl)acetylamino)-3-phenylpropionic acid hydrochloride] | – |
| 80 | 150 | 0.948 | – | – | – | CC1(c2ccc(C(=N)N)cc2)NC(=O)N(CC(=O)NC(CC(=O)O)c2cccc([N+](=O)[O-])c2)C1=O (racemic) [Example 39, (R,S)-3-(((R,S)-4-(4-(Aminoiminomethyl)phenyl)-4-methyl-2,5-dioxoimidazolidin-1-yl)acetylamino)-3-(3-nitrophenyl)propionic acid] | – |
| 400 | 250 | 1.99 | – | – | – | CC1(c2ccc(C(=N)N)cc2)NC(=O)N(CC(=O)NC(CC(=O)O)c2ccc(C(=O)O)cc2)C1=O (racemic) [Example 40, (R,S)-3-(((R,S)-4-(4-(Aminoiminomethyl)phenyl)-4-methyl-2,5-dioxoimidazolidin-1-yl)acetylamino)-3-(4-hydroxycarbonylphenyl)propionic acid] | – |
| 100 | 100 | 1.23 | – | – | – | CC1(c2ccc(C(=N)N)cc2)NC(=O)N(CC(=O)NC(CC(=O)O)c2ccc(-c3ccccc3)cc2)C1=O (racemic) [Example 46, (R,S)-3-(((R,S)-4-(4-Aminoiminomethyl)phenyl)-4-methyl-2,5-dioxoimidazolidin-1-yl)acetylamino)-3-(4-phenylphenyl)propionic acid] | – |
| – | – | 37.3 | 6000 | 5000 | 1970 | CC1(c2ccc(C(=N)N)cc2)NC(=O)N(CC(=O)N[C@@H](CC(=O)O)c2ccccc2)C1=O (single isomer, unassigned) [Example 57, (S)-3-(((S or R)-4-(4-Aminoiminomethyl)phenyl)-4-methyl-2,5-dioxoimidazolidin-1-yl)acetylamino)-3-phenylpropionic acid] | – |
| – | – | 0.172 | 20 | 25 | 9.2 | CC1(c2ccc(C(=N)N)cc2)NC(=O)N(CC(=O)N[C@@H](CC(=O)O)c2ccccc2)C1=O (single isomer, unassigned) [Example 58, (S)-3-(((R or S)-4-(4-Aminoiminomethyl)phenyl)-4-methyl-2,5-dioxoimidazolidin-1-yl)acetylamino)-3-phenylpropionic acid] | – |
| 1000 | 500 | – | – | – | – | N=C(N)c1ccc(CC2NC(=O)N(CC(=O)NC[C@H](NC(=O)OCc3ccccc3)C(=O)O)C2=O)cc1 (stereo partly drawn) [Example 9, 3-(((R,S)-4-(4-(Aminoiminomethyl)benzyl)-2,5-dioxoimidazolidin-1-yl)acetylamino)-2-benzyloxycarbonylaminopropionic acid] | – |
| 2000 | 1000 | – | – | – | – | CC(C)(C)OC(=O)NN(CC(=O)O)C(=O)CN1C(=O)NC(=Cc2ccc(C(=N)N)cc2)C1=O [Example 20] | – |
| – | – | – | 55 | 80 | – | CCN1C(=O)N(CC(=O)N[C@@H](CC(=O)O)C(=O)N[C@H](C(=O)O)c2ccccc2)C(=O)C1(C)c1ccc(C(=N)N)cc1 (stereo partly drawn) [Example 24, ((R,S)-4-(4-(Aminoiminomethyl)phenyl)-3-ethyl-4-methyl-2,5-dioxoimidazolidin-1-yl)acetyl-L-aspartyl-L-phenylglycine] | – |
| 50 | 45 | – | – | – | – | CC1(c2ccc(C(=N)N)cc2)NC(=O)N(CC(=O)N[C@@H](CC(=O)O)C(=O)NC23CC4CC(CC(C4)C2)C3)C1=O (stereo partly drawn) [Example 68, (2-((R,S)-4-(4-(aminoiminomethyl)phenyl)-4-methyl-2,5-dioxoimidazolidin-1-yl)acetyl)-L-aspartyl-1-adamantylamide] | – |
| 25 | 45 | – | – | – | – | CC1(c2ccc(C(=N)N)cc2)NC(=O)N(CC(=O)N[C@@H](CC(=O)O)C(=O)NC2C3CC4CC(C3)CC2C4)C1=O (stereo partly drawn) [Example 69, (2-((R,S)-4-(4-(Aminoiminomethyl)phenyl)-4-methyl-2,5-dioxoimidazolidin-1-yl)acetyl)-L-aspartyl-2-adamantylamide] | – |
| 65 | 70 | – | – | – | – | CC1(c2ccc(C(=N)N)cc2)NC(=O)N(CC(=O)N[C@@H](CC(=O)O)C(=O)NCC23CC4CC(CC(C4)C2)C3)C1=O (stereo partly drawn) [Example 70, (2-((R,S)-4-(4-(Aminoiminomethyl)phenyl)-4-methyl-2,5-dioxoimidazolidin-1-yl)acetyl)-L-aspartyl-(1-adamantylmethyl)amide] | – |

| SMILES | IC50 [1, 4] [nM] | IC50 [1, 5] [nM] | Ki [2, 6] [nM] | IC50 [1, 7] [nM] | IC50 [1, 8] [nM] | Ki [3] [nM] | Ki [2, 9] [nM] |
| --- | --- | --- | --- | --- | --- | --- | --- |
| CC1(c2ccc(C(=N)N)cc2)NC(=O)N(CC(=O)N[C@@H](CC(=O)O)C(=O)N[C@H](C(=O)O)c2ccccc2)C1=O (single isomer, unassigned) [Example 21, ((S or R)-4-(4-(Aminoiminomethyl)phenyl)-4-methyl-2,5-dioxoimidazolidin-1-yl)acetyl-L-aspartyl-L-phenylglycine] | – | – | – | 800 | 500 | – | 1.9 |
| CC1(c2ccc(C(=N)N)cc2)NC(=O)N(CC(=O)N[C@@H](CC(=O)O)C(=O)N[C@H](C(=O)O)c2ccccc2)C1=O (single isomer, unassigned) [Example 22, ((R or S)-4-(4-(Aminoiminomethyl)phenyl)-4-methyl-2,5-dioxoimidazolidin-1-yl)acetyl-L-aspartyl-L-phenylglycine] | – | – | – | 25 | 50 | – | 0.15 |
| CC1(c2ccc(NC(=N)N)cc2)NC(=O)N(CC(=O)N[C@@H](CC(=O)O)C(=O)N[C@H](C(=O)O)c2ccccc2)C1=O (stereo partly drawn) [Example 10, ((R,S)-4-(4-Guanidinophenyl)-4-methyl-2,5-dioxoimidazolidin-1-yl)acetyl-L-aspartyl-L-phenylglycine] | 150 | 60 | – | – | – | – | – |
| COC(=O)[C@@H](NC(=O)[C@H](CC(=O)O)NC(=O)CN1C(=O)NC(C)(c2ccc(C(=N)N)cc2)C1=O)c1ccccc1 (stereo partly drawn) [Example 23, ((R,S)-4-(4-(Aminoiminomethyl)phenyl)-4-methyl-2,5-dioxoimidazolidin-1-yl)acetyl-L-aspartyl-L-phenylglycine methyl ester] | 30 | 50 | – | – | – | – | – |
| CC1(c2ccc(C(=N)N)cc2)C(=O)N(CC(=O)N[C@@H](CC(=O)O)C(=O)N[C@H](C(=O)O)c2ccccc2)C(=O)N1Cc1ccccc1 (some centres unmarked) [Example 25] | 30 | 50 | 0.175 | – | – | – | – |
| N=C(N)c1ccc(C2(C3CC3)NC(=O)N(CC(=O)N[C@@H](CC(=O)O)C(=O)N[C@H](C(=O)O)c3ccccc3)C2=O)cc1 (stereo partly drawn) [Example 26, ((R,S)-4-(4-(Aminoiminomethyl)phenyl)-4-cyclopropyl-2,5-dioxoimidazolidin-1-yl)acetyl-L-aspartyl-L-phenylglycine] | 20 | 40 | 0.117 | – | – | – | – |
| CCC1(c2ccc(C(=N)N)cc2)NC(=O)N(CC(=O)N[C@@H](CC(=O)O)C(=O)N[C@H](C(=O)O)c2ccccc2)C1=O (stereo partly drawn) [Example 27, ((R,S)-4-(4-(Aminoiminomethyl)phenyl)-4-ethyl-2,5-dioxoimidazolidin-1-yl)acetyl-L-aspartyl-L-phenylglycine] | 25 | 40 | 0.107 | – | – | – | – |
| N=C(N)c1ccc(C2(Cc3ccccc3)NC(=O)N(CC(=O)N[C@@H](CC(=O)O)C(=O)N[C@H](C(=O)O)c3ccccc3)C2=O)cc1 (stereo partly drawn) [Example 28, ((R,S)-4-(4-(Aminoiminomethyl)phenyl)-4-benyl-2,5-dioxoimidazolidin-1-yl)acetyl-L-aspartyl-L-phenylglycine] | 25 | 40 | 0.078 | – | – | – | – |
| CC(C)(C)C1(c2ccc(C(=N)N)cc2)NC(=O)N(CC(=O)N[C@@H](CC(=O)O)C(=O)N[C@H](C(=O)O)c2ccccc2)C1=O (some centres unmarked) [Example 29] | 50 | 40 | – | – | – | – | – |
